US20040106793A1, “Oxazoles for treating cytokine mediated diseases” (SmithKline Beecham Corporation, priority 1993, published 2004)

System: IL-1 produced by human monocytes
Experiment: Interleukin 1 (IL-1) production by LPS-stimulated human monocytes
Format: cell-based
Conditions: human peripheral blood monocytes, compound 1 h before lipopolysaccharide (50 ng/ml), 24 h at 37° C.; IL-1 in supernatant by bioassay (EL-4) or ELISA
Method: Human peripheral blood monocytes were isolated and purified from either fresh blood preparations from volunteer donors, or from blood bank buffy coats, according to the procedure of Colotta et al, J Immunol, 132, 936 (1984). These monocytes (1×10^6) were plated in 24-well plates at a concentration of 1-2 million/ml per well. The cells were allowed to adhere for 2 hours, after which time non-adherent cells were removed by gentle washing. Test compounds were then added to the cells for 1 h before the addition of lipopolysaccharide (50 ng/ml), and the cultures were incubated at 37° C. for an additional 24 h. At the end of this period, culture supernatants were removed and clarified of cells and all debris. Culture supernatants were then immediately assayed for IL-1 biological activity, either by the method of Simon et al., J. Immunol. Methods, 84, 85, (1985) (based on ability of IL-1 to stimulate a Interleukin 2 producing cell line (EL-4) to secrete IL-2, in concert with A23187 ionophore) or the method of Lee et al., J. ImmunoTherapy, 6 (1), 1-12 (1990) (ELISA assay).

Structure (SMILES) | inhibition of in vitro IL-1 produced by human monocytes
COc1cccc(-c2oc(C)nc2-c2ccncc2)c1 [Example 1, 5-(3-Methoxyphenyl)-2-methyl-4-(4-pyridyl)oxazole] | inhibitors
Cc1nc(-c2ccncc2)c(-c2ccc(F)cc2)o1 [Example 2, 5-(4-Fluorophenyl)-2-methyl-4-(4-pyridyl)oxazole] | inhibitors
Fc1ccc(-c2ncoc2-c2ccncc2)cc1 [Example 7, 4-(4-Fluorophenyl)-5-(4-pyridyl)oxazole] | inhibitors
